# Like-named read-outs stand apart in the source and are kept apart here.
# How the values were obtained:
# [1] = in vivo; settings: rat, po
# [2] = tested on: formation of granulation tissue after subcutaneous implantation of cotton; assay: Chronic antiphlogistic action: cotton pellet test (formation of granulation tissue) in rats; settings: rats; for Therapeutic quotient LD50/ED20: cotton pellet test, LD50 7 days oral; for Inhibition of the formation of granulation tissue after treatment for 7 days: sodium salt
# Method: (§1) Biol. Med., 111 (1962) 544]}, on chronic inflammatory processes {Cotton pellet test on rats [Winter et al.: J. Pharmacol. exp. Therap., 141 (1963) 369]} and on adjuvant arthritis [based on the method of Perrine et al., Brit. J. Pharmacol., 21 (1963) 127] is determined.
# Experimental procedure for investigating the influence of the compounds to be tested on the formation of granulation tissue after implantation of cotton in rats (so-called cotton pellet method):
# 1 cotton pellet (manufacturer: Messrs. Hartmann/Heidenheim; cotton pellets size 2, No. 4865/2) which weighs 13.0±0.5 mg and has been impregnated beforehand with 0.1 ml of a solution of 0.5 mg of penicillin G and 0.8 mg of streptomycin sulfate/1 ml of distilled water is in each case implanted subcutaneously into the shoulder-blade region, on both sides, of male Sprague-Dawley rats (groups of 8 animals each; weight of each animal: 150 to 170 g) under diethyl ether anaesthesia and under sterile conditions. The cut skin is closed by means of clamps.
# The compounds to be tested (in the form of the sodium salt in aqueous solution) or the corresponding amount (5 ml/kg/day) of tapwater (=control group) are administered orally each day on seven successive days. On the eighth day, the animals are killed and the cotton granules are exposed carefully, that is to say preserving the fibrous tissue capsule, dried (15 hours at 120°) and weighed. By substracting the weight of the cotton pellets, the amount of newly formed granulation tissue is obtained.
# The percentage reduction in the average granuloma dry weight of a treated group compared with the control group (=100%) serves as a measure of the antiproliferative action of a compound.
# [3] = tested on: yeast-induced fever in rats; assay: Antipyretic action: yeast-induced fever in rats; type: in vivo, rats (female Sprague-Dawley); settings: for ED (1.5 degC): Rattus norvegicus, po, read-out: ED1.5 (dose which causes a maximum reduction in yeast-induced fever of 1.5° C.); for Therapeutic quotient LD50/ED2.5: yeast-induced fever, LD50 7 days
# Method: The antipyretic action is determined by the influence of the compounds to be tested on yeast-induced fever in rats.
# Hyperthermia is produced in female Sprague-Dawley rats (in groups of 5 animals; weight of each animal: 160 to 180 g) by subcutaneous injection (neck) of 10 ml/kg of a 20 percent strength aqueous brewer's yeast suspension (brewer's yeast "Heliosan"/Hefereformwerk Radolfzell). 24 hours after the yeast injection, the compounds to be tested are administered orally to the animals in a volume of liquid of 5 ml/kg, and a control group receives the corresponding amount of tapwater. The feed (Altromin®R, water ad libitum) was withdrawn from the rats 18 hours beforehand. The rats are kept at about 23° C.
# The body temperature is recorded 1 hour before administration of the substance and at hourly intervals after administration of the substance.
# […] The body temperature is measured with a temperature probe (Tastomed H, Braun electronic).
# [4] = versus phenylbutazone; Alpermann 1970, 1972; cited from earlier work
# [5] = tested on: carrageenin edema of the hind paw of rats; assay: Acute antiphlogistic action: carrageenin edema of the hind paw of rats after single oral administration; settings: for ED50: Rattus norvegicus, po, read-out: ED50 (dose which causes a maximum edema inhibition of 50%); for Therapeutic quotient LD50/ED50: carrageenin edema, LD50 7 days oral; for Therapeutic quotient LD50/ED50 / Maximum inhibition of carrageenin edema within 7 hours after oral administration: rats
# Method: as §1
# The influence of the compounds to be tested on carrageenin edema of the hind paw of rats was determined as follows:
# The rats are kept at 24° C.
# The paw volume of each rat is determined (2 to 3 individual measurements in each case) before edema provocation and at hourly intervals for 7 hours after edema provacation. The average percentage paw swelling of each treated group determined at the specified times after the carrageenin injection is related to that of the untreated control group (=100%).
# The maximum percentage edema inhibition serves as a measure of the antiphlogistic action.
# The paw volume is determined plethysmometrically. Measuring principle: the volume of liquid displaced through the paw of the rat is recorded digitally via an electromechanical pressure transducer (Statham P 23 V, 0-200 mm Hg).
# The doses indicated for the compounds tested were administered in a volume of liquid of 20 ml/kg.
# [6] = tested on: rats; settings: 7 days (Table 6)
# [7] = tested on: pain reaction provoked in rats by bending an inflamed ankle (AgNO3 arthritis); assay: animal or person; type: in vivo
# Method: Based on the method of HOFFMEISTER et al. [Arzneim. Forsch., 24, (1974) 600], 0.2 ml of a 1% strength silver nitrate solution is injected into the ankle joint (inside) of the right hind paw of female Sprague-Dawley rats (each animal weighing about 160 to 180 g) under ether anaesthesia. The animals are kept at 24° C. and are fed Altromin®R and water ad libitum. After the AgNO3 injection, almost all the animals (90 to 95%) can be made to cry out by moderate bending of the ankle joint. All the animals reacting positively are collected into groups of 10 animals. The compounds to be tested are administered orally in a volume of liquid of 10 ml/kg immediately after administration of the AgNO3; the untreated control animals receive the corresponding amount of tapwater.
# Over a period of 4 hours after administration of the substance, the number of animals reacting is determined at half hourly intervals.
# The maximum percentage of the protected animals over a period of 4 hours after administration of the substance [relative to the number of animals in the control group reacting (=100%)] serves as a measure of the analgesic action.
# [8] = tested on: adjuvant arthritis in rats; assay: Antiarthritic action: adjuvant arthritis in rats (Mycobacterium butyricum)
# Method: as §1
# The influence of the compounds to be tested on polyarthritis in rats caused by Mycobacterium butyricum (so-called "adjuvant arthritis") was determined using the experimental arrangement hereafter described: based on the method described by NEWBOULD and PERRINE et al. [NEWBOULD, B. B.; Brit. J. Pharmacol. 21, 127 (1963); and PERRINE, J. W. and TAKESUE, E. I.; Arch. int. Pharmacodyn., 174, 192 to 198 (1968)], so-called adjuvant arthritis, which manifests itself chiefly in a severe swelling of the tail (primary lesion) and of the paws (secondary lesion), is caused in rats by intradermal injection of a Mycobact. butyricum suspension in liquid paraffin into the base of the tail. Antiphlogistic agents inhibit this swelling reaction.
# [9] = rats, single oral dose 0.3 mg/kg
# [10] = AgNO3 arthritis pain, LD50 7 days oral, rats
structure (smiles),measurement,setting,value
"Cc1cccc(Nc2cscc2CC(=O)O)c1Cl [Compound 7, 4-(2-chloro-3-methylanilino)-3-thiophenacetic acid]",LD50 at 168 h,[1],> 20 mg/kg
same,Therapeutic quotient LD50/ED20,[2],> 5.7
same,Inhibition of the formation of granulation tissue after treatment for 7 days,[2]; 7 x 3.0 mg/kg/day orally,19%
same,Inhibition of the formation of granulation tissue after treatment for 7 days,[2]; 7 x 10.0 mg/kg/day orally,27%
"O=C(O)Cc1cscc1Nc1c(F)cccc1F [Compound 12, 4-(2,6-difluoroanilino)-3-thiophenacetic acid]",LD50 at 168 h,[1],> 30 mg/kg
same,ED (1.5 degC),"[3]; rats, perorally, single dose",0.9 mg/kg
same,Maximum reduction in yeast-induced fever over a period of 7 hours,[3]; [9],0.5 °C
same,Maximum reduction in yeast-induced fever over a period of 7 hours,"[3]; rats, single oral dose 1 mg/kg",1.6 °C
same,Therapeutic quotient LD50/ED2.5,[3]; rats,> 33
Cc1cccc(Nc2cscc2C(=O)O)c1Cl [2-chloro-3-methylphenyl derivative],actions,[4],superior to those of phenylbutazone
"Cc1ccc(Cl)c(Nc2cscc2CC(=O)O)c1Cl [Compound 5, 4-(2,6-dichloro-3-methylanilino)-3-thiophenacetic acid]",LD50 at 168 h,[1],8 mg/kg
same,Therapeutic quotient LD50/ED20,[2],5
same,Inhibition of the formation of granulation tissue after treatment for 7 days,[2]; 7 x 1.0 mg/kg/day orally,16%
same,Inhibition of the formation of granulation tissue after treatment for 7 days,[2]; 7 x 3.0 mg/kg/day orally,26%
same,ED (1.5 degC),"[3]; rats, perorally, single dose",< 0.3 mg/kg
same,Maximum reduction in yeast-induced fever over a period of 7 hours,[3]; [9],1.7 °C
same,Therapeutic quotient LD50/ED2.5,[3]; rats,> 26.7
"Cc1cccc(Cl)c1Nc1ccsc1CC(=O)O [Compound 11, 3-(2-chloro-6-methylanilino)-2-thiophenacetic acid]",ED50,[5],~3 mg/kg
same,Therapeutic quotient LD50/ED50,[5],> 6.7
same,Maximum inhibition of carrageenin edema within 7 hours after oral administration,[5]; single oral dose 3.0 mg/kg,49%
same,LD50 at 168 h,[1],> 20 mg/kg
"O=C(O)Cc1csc(Cl)c1Nc1c(Cl)cccc1Cl [Compound 10, 5-chloro-4-(2,6-dichloroanilino)-3-thiophenacetic acid]",ED (1.5 degC),[3],0.5 mg/kg
same,Maximum reduction in yeast-induced fever over a period of 7 hours,[3]; [9],1.2 °C
same,Maximum reduction in yeast-induced fever over a period of 7 hours,"[3]; rats, single oral dose 0.6 mg/kg",1.6 °C
"Cc1c(Cl)cccc1Nc1cscc1CC(=O)O [Compound 8, 4-(3-chloro-2-methylanilino)-3-thiophenacetic acid]",ED50,[5],~3 mg/kg
same,Therapeutic quotient LD50/ED50,[5],> 10
same,Maximum inhibition of carrageenin edema within 7 hours after oral administration,[5]; single oral dose 3.0 mg/kg,49%
same,LD50 at 168 h,[1],> 30 mg/kg
Cc1c(Cl)cccc1Nc1cscc1C(=O)O [2-methyl-3-chlorophenyl derivative],actions,[4],superior to those of phenylbutazone
"Cc1cccc(Cl)c1Nc1cscc1CC(=O)O [Compound 4, 4-(2-chloro-6-methylanilino)-3-thiophenacetic acid]",ED50,[5],3 mg/kg
same,Therapeutic quotient LD50/ED50,[5],> 6.7
same,Maximum inhibition of carrageenin edema within 7 hours after oral administration,[5]; single oral dose 3.0 mg/kg,50%
same,LD50 at 168 h,[1],> 20 mg/kg
same,"LD50, lethal action after administration for 7 days",[6],> 20 mg/kg/day
same,ED (1.5 degC),"[3]; rats, perorally, single dose",~0.3 mg/kg
same,Maximum reduction in yeast-induced fever over a period of 7 hours,[3]; [9],1.4 °C
same,Therapeutic quotient LD50/ED2.5,[3]; rats,> 66.7
"O=C(O)c1cscc1Nc1c(Cl)cccc1Cl [Compound 1, 3-(2,6-dichloroanilino)thiophen-4-carboxylic acid]",ED50,[5],56 mg/kg
same,Therapeutic quotient LD50/ED50,[5],2.1
same,Maximum inhibition of carrageenin edema within 7 hours after oral administration,[5]; single oral dose 10.0 mg/kg,31%
same,Maximum inhibition of carrageenin edema within 7 hours after oral administration,[5]; single oral dose 100.0 mg/kg,57%
same,LD50 at 168 h,[1],120 mg/kg
same,Therapeutic quotient LD50/ED50,[7]; [10],0.86
same,therapeutic quotient LD50/ED25,[7]; [10],4
same,ED25,"[7]; Rattus norvegicus, po, read-out: ED25 (dose which completely suppresses the pain reaction in 25% of the animals)",30 mg/kg
same,ED50,"[7]; Rattus norvegicus, po, rats, perorally, at the time of maximum action, read-out: ED50 (dose which completely suppresses the pain reaction in 50% of the animals)",140 mg/kg
same,Inhibition of the pain reaction,"[7]; rats, single oral dose 3 mg/kg",10%
same,Inhibition of the pain reaction,"[7]; rats, single oral dose 20 mg/kg",20%
same,Inhibition of the pain reaction,"[7]; rats, single oral dose 100 mg/kg",40%
same,Inhibition of the pain reaction,"[7]; rats, single oral dose 200 mg/kg",60%
same,ED25,"[8]; Rattus norvegicus, po, 120 h, read-out: ED25 (inhibition of adjuvant arthritis of 25%)",9 mg/kg/day
same,therapeutic quotient LD50/ED25,"[8]; adjuvant arthritis, LD50 7 days oral, rats",13.3
same,actions,[4],superior to those of phenylbutazone
same,ED (1.5 degC),"[3]; rats, perorally, single dose",8.2 mg/kg
same,Maximum reduction in yeast-induced fever over a period of 7 hours,"[3]; rats, single oral dose 1 mg/kg",0 °C
same,Maximum reduction in yeast-induced fever over a period of 7 hours,"[3]; rats, single oral dose 3 mg/kg",0.6 °C
same,Maximum reduction in yeast-induced fever over a period of 7 hours,"[3]; rats, single oral dose 10 mg/kg",1.7 °C
same,Maximum reduction in yeast-induced fever over a period of 7 hours,"[3]; rats, single oral dose 30 mg/kg",2.1 °C
"O=C(O)Cc1sccc1Nc1c(Cl)cccc1Cl [Compound 6, 3-(2,6-dichloroanilino)-2-thiophenacetic acid]",ED50,[5],~3 mg/kg
same,Therapeutic quotient LD50/ED50,[5],> 6.7
same,Maximum inhibition of carrageenin edema within 7 hours after oral administration,[5]; single oral dose 3.0 mg/kg,52%
same,LD50 at 168 h,[1],> 20 mg/kg
same,"LD50, lethal action after administration for 7 days",[6],> 20 mg/kg/day
same,ED (1.5 degC),"[3]; rats, perorally, single dose",< 0.3 mg/kg
same,Maximum reduction in yeast-induced fever over a period of 7 hours,[3]; [9],1.7 °C
same,Therapeutic quotient LD50/ED2.5,[3]; rats,> 66.7
"Cc1cccc(C)c1Nc1cscc1CC(=O)O [Compound 9, 4-(2,6-dimethylanilino)-3-thiophenacetic acid]",LD50 at 168 h,[1],> 30 mg/kg
same,Therapeutic quotient LD50/ED20,[2],> 10
same,Inhibition of the formation of granulation tissue after treatment for 7 days,[2]; 7 x 3.0 mg/kg/day orally,19%
same,"LD50, lethal action after administration for 7 days",[6],> 30 mg/kg/day
same,ED (1.5 degC),"[3]; rats, perorally, single dose",0.3 mg/kg
same,Maximum reduction in yeast-induced fever over a period of 7 hours,"[3]; rats, single oral dose 0.1 mg/kg",1.0 °C
same,Maximum reduction in yeast-induced fever over a period of 7 hours,[3]; [9],1.5 °C
same,Maximum reduction in yeast-induced fever over a period of 7 hours,"[3]; rats, single oral dose 1 mg/kg",2.3 °C
same,Therapeutic quotient LD50/ED2.5,[3]; rats,> 100
